Measured values reported in patent publication US20200407683A1, “IN VITRO IMMUNE SYNAPSE SYSTEM AND METHOD OF IN VITRO […] RESPONSE USING THE SAME” (National Pingtung University of Science and Technology, priority 2018, published 2020).

Test system: IL-2
Experiment: In vitro immune synapse system, immune adjuvant immunostimulation: IL-2 level
Format: cell-based, pig
Settings: 2 μg/well poly IC, in comparison to IL-18 (0.1 ng/well); Treg/APC system; FIG. 5; P<0.05
Description: In this Example, a commercial kit of porcine IL-2 and IL-10 was used for quantifying the IL-2 and IL-10 levels in the porcine cell supernatant. According to the steps of the specification provided in the kit, the standard liquid provided by the kit was diluted for later use, and a flow was described briefly below. Firstly, 100 μL of sample or diluted standard liquid was added into a 96-well plate and incubated for 1 hour. Next, 200 μL of biotinylated antibody reagent was added into the 96-well plate and incubated for another hour. […] Afterwards, 100 μL of stop solution was added to terminate the reaction in order to measure the absorbance. […]
Generally, the absorbance could be read by a commercial continuous spectrophotometer at a wavelength of 450/540 nm, and a standard curve was established by serially-diluted standard solution of various concentrations versus respective absorbances. Then, the cell cytokine concentration of each sample was calculated according to the regression equation of the standard curve, and a commercially statistical software (such as a SAS statistical program) was used to calculate significant difference between the means of all groups, as shown by the results of FIGS. 3A to 3B. […]

## poly-IC
  IL-2 level in the immunological synapse: significantly improve
